From the Deep4Chem optical property database

Test: solvent given as SMILES

COc1cc2c(c(OC)c1OC)c1ccc3cccc4c5cccc6oc(=O)c2c(c65)c1c34
absorption maximum (in C1CCOC1): 417 nm

CC(C)(C)c1cc(-c2c3cccc4c5cccc6c(-c7cc(C(C)(C)C)cc(C(C)(C)C)c7)c7cccc8c9cccc2c9c(c34)c(c65)c78)cc(C(C)(C)C)c1
absorption maximum (in Cc1ccccc1): 687 nm

CC1=C(Br)C(/C=C/c2ccncc2)=[N+]2C1=C(c1ccccc1)c1c(C)c(Br)c(/C=C/c3ccncc3)n1[B-]2(F)F
absorption maximum (in ClC(Cl)Cl): 620 nm

Cc1cc(C)c(B2c3cc(C)ccc3N3c4ccc(C)cc4B(c4c(C)cc(C)cc4C)c4cc(C)cc2c43)c(C)c1
absorption maximum (in ClCCl): 457 nm

Cc1cscc1-c1cc2c3cc(-c4cscc4C)c4nc(C(F)(F)C(F)(F)C(F)(F)F)nc5c(-c6cscc6C)cc(c6cc(-c7cscc7C)c7nc(C(F)(F)C(F)(F)C(F)(F)F)nc1c7c26)c3c45
absorption maximum (in C1CCOC1): 493 nm

CCN(CC)c1cccc(C=O)c1
absorption maximum (in CC#N): 380 nm
absorption maximum (in CC(C)O): 382 nm
absorption maximum (in CCCCCC): 367 nm
absorption maximum (in CCOC(C)=O): 376 nm
absorption maximum (in CO): 382 nm
absorption maximum (in CS(C)=O): 384 nm
absorption maximum (in Cc1ccccc1): 380 nm
absorption maximum (in ClCCl): 382 nm

CCCCN1C(=O)C2=C(c3ccc(-c4ccc5c(c4)C(C)(C)c4ccccc4-5)cc3)NC(=O)C2=C1c1ccc(-c2ccc3c(c2)C(C)(C)c2ccccc2-3)cc1
absorption maximum (in ClCCl): 497 nm

CC1=CC(C)=[N+]2C1=C(c1ccc(I)cc1)c1c(C)cc(C)n1[B-]2(Oc1ccc([N+](=O)[O-])cc1)Oc1ccc([N+](=O)[O-])cc1
absorption maximum (in ClC(Cl)Cl): 505 nm

CC(=O)OC[C@H]1O[C@@H]([C@@H]2C=CC(=S)NC2=O)[C@H](OC(C)=O)[C@@H]1OC(C)=O
absorption maximum (in ClC(Cl)(Cl)Cl): 420 nm

COC(=O)C[C@H](Cc1c[nH]c2ccccc12)NC(=O)[C@H](CC(=O)N[C@@H](CC1=CCc2ccccc21)C(=O)OC)NC(=O)OC(C)(C)C
absorption maximum (in CC#N): 280 nm
absorption maximum (in CCOC(C)=O): 280 nm
absorption maximum (in CO): 280 nm

CN(C)C1=Nc2cccc3cccc1c23
absorption maximum (in CC#N): 427 nm

ClP1(Cl)=N[P@@](Cl)(Oc2ccc3ccc4cccc5ccc2c3c45)=N[P@@](Cl)(Oc2ccc3ccc4cccc5ccc2c3c45)=N1
absorption maximum (in ClCCl): 343 nm

CCCCn1c(-c2ccc(-c3nnc(-c4ccccc4)o3)cc2)nc(-c2ccccc2)c1-c1ccccc1
absorption maximum (in ClCCl): 339 nm

O=C1CCCC2=C1C(c1ccccc1)c1c(c3ccccc3oc1=O)N2 (stereo not drawn)
absorption maximum (in CS(C)=O): 368 nm

C[Si]1(C)c2ccc(-c3cccs3)cc2C=Cc2cc(-c3cccs3)ccc21
absorption maximum (in ClCCl): 354 nm

Cc1ccc(-c2cnc3ccc4ccccc4n23)cc1
absorption maximum (in ClCCl): 324 nm

CCn1c2ccccc2c2cc(-c3cc(-c4ccc5c(c4)c4ccccc4n5CC)nc(S(C)(=O)=O)n3)ccc21
absorption maximum (in C1CCOC1): 381 nm
absorption maximum (in CCOC(C)=O): 378 nm
absorption maximum (in CN(C)C=O): 384 nm
absorption maximum (in Cc1ccccc1): 382 nm
absorption maximum (in ClCCl): 384 nm

CC(C)c1cccc(C(C)C)c1N1C(=O)c2ccc3c(-c4ccc(C(=O)O)cc4)c4c5ccc6c7c(ccc(c(-c8ccc(C(=O)O)cc8)c4c4ccc(c2c34)C1=O)c75)C(=O)N(c1c(C(C)C)cccc1C(C)C)C6=O
absorption maximum (in ClCCl): 622 nm

COc1cc(C2=c3c(c4ccc(C(C)(C)C)cc4c4c(OC)c(OC)c(OC)cc34)=[N+]3C2=Nc2c(-c4cc(OC)c(OC)c(OC)c4)c4c5cc(OC)c(OC)c(OC)c5c5cc(C(C)(C)C)ccc5c4n2[B-]3(F)F)cc(OC)c1OC
absorption maximum (in Cc1ccccc1): 808 nm

CCN(CC)c1ccc2cc(-c3cn4cc5ccccc5cc4n3)c(=O)oc2c1
absorption maximum (in ClC(Cl)Cl): 434 nm

Cc1cc2cc(N3c4ccccc4Oc4ccccc43)ccc2c(=O)o1
absorption maximum (in Cc1ccccc1): 395 nm

Cc1nc2c(ccc3c2sc(/C=C/c2ccc(N4CCN(C)CC4)cc2)[n+]3C)s1
absorption maximum (in CO): 505 nm
absorption maximum (in ClC(Cl)Cl): 545 nm

Cc1ccc(OCc2cc(=O)oc3c2ccc2ccccc23)cc1
absorption maximum (in C1CCOC1): 352 nm
absorption maximum (in C1COCCO1): 352 nm
absorption maximum (in CCOC(C)=O): 351 nm
absorption maximum (in CO): 352 nm
absorption maximum (in Cc1ccccc1): 354 nm
absorption maximum (in ClCCl): 354 nm

O=C1c2cccc3c(-n4c5ccccc5c5ccccc54)ccc(c23)C(=O)N1C1CCCCC1
absorption maximum (in C1CCOC1): 407 nm
absorption maximum (in CCCCCC): 399 nm
absorption maximum (in ClC(Cl)Cl): 402 nm
absorption maximum (in ClCCl): 410 nm

O=c1c2cc(Br)ccc2nc2n1[B-](F)(F)[n+]1ccccc1-2
absorption maximum (in CC#N): 343 nm
absorption maximum (in ClCCl): 358 nm

COC(=O)C(CCCCNC(=O)CCNc1cccc2ccccc12)NC(C)=O (stereo not drawn)
absorption maximum (in CCO): 330 nm

CNC1=C2C=CC=[N+]2[B-](F)(F)n2cccc21
absorption maximum (in C1CCCCC1): 418.5 nm
absorption maximum (in CC(C)=O): 395.5 nm
absorption maximum (in CCO): 397 nm
absorption maximum (in CCOC(C)=O): 398.5 nm
absorption maximum (in CO): 394.5 nm
absorption maximum (in OCC(F)(F)F): 393 nm

CN(C)c1ccc(C(=Cc2ccc(C=O)cc2)c2ccc(N(C)C)cc2)cc1
absorption maximum (in C1CCOC1): 407 nm

CCCCCCc1cc2c3c(c1)c(=C(c1ccccc1)c1ccccc1)c1cc(CCCCCC)cc4c1N3c1c(cc(CCCCCC)cc1c4=C(c1ccccc1)c1ccccc1)c2=C(c1ccccc1)c1ccccc1
absorption maximum (in ClCCl): 405 nm

COc1ccc(/C=C/C2=CC(c3ccccc3)=[O+][B-](F)(F)O2)cc1
absorption maximum (in ClCCl): 444 nm

COc1ccc(C2=[N+]3C(=Nc4c(-c5cc(OC)c(OC)c(OC)c5)cc(-c5ccc(OC)cc5)n4[B-]3(F)F)C(c3cc(OC)c(OC)c(OC)c3)=C2)cc1
absorption maximum (in Cc1ccccc1): 698 nm

CCCCCCCCCCCCn1nnc(-c2ccc(C#Cc3ccc(C#Cc4ccc(-c5nnn(CCCCCCCCCCCC)n5)cc4)c4nc5c6ccccc6c6ccccc6c5nc34)cc2)n1
absorption maximum (in C1CCOC1): 428 nm
absorption maximum (in Cc1ccccc1): 428 nm
absorption maximum (in ClCCl): 428 nm

COc1cc(N(c2ccccc2)c2ccccc2)ccc1C=C(C#N)C#N
absorption maximum (in C1COCCO1): 436 nm
absorption maximum (in CC#N): 440 nm
absorption maximum (in CC(C)=O): 440 nm
absorption maximum (in CCOC(C)=O): 439 nm
absorption maximum (in CN(C)C=O): 445 nm
absorption maximum (in CO): 442 nm
absorption maximum (in Cc1ccccc1): 443 nm
absorption maximum (in ClC(Cl)Cl): 449 nm
absorption maximum (in ClCCl): 446 nm

C[Si]1(C)O[Si](C)(C)c2cc3nc4ccc(Cl)cc4c(-c4ccccc4)c3cc2[Si](C)(C)O1
absorption maximum (in ClCCl): 373 nm

c1ccc2c(c1)ccc1ccc3c(c12)-c1c(ccc2ccc4ccccc4c12)C3
absorption maximum (in ClCCl): 400 nm

COc1cc2cc(/C=C/c3ccc(/C=C(\C#N)C(=O)O)cc3)c(=O)oc2cc1OC
absorption maximum (in CC#N): 400 nm

CC(=O)OC[C@@H]1O[C@H](N2C=CC3=Nc4nc(C)[n+](C)cc4CN3C2=O)[C@@H](O)[C@H]1O
absorption maximum (in CC#N): 386 nm
absorption maximum (in CCO): 388 nm
absorption maximum (in O): 382 nm

Cc1c(C2=[N+]3C(=Cc4c(C)c5ccccc5n4[B-]3(F)F)c3ccccc32)[nH]c2ccccc12
absorption maximum (in C1CCOC1): 608 nm
absorption maximum (in CC#N): 591 nm
absorption maximum (in CCCCCC): 623 nm
absorption maximum (in CO): 598 nm
absorption maximum (in Cc1ccccc1): 625 nm
absorption maximum (in ClCCl): 611 nm

Cc1ccc(C2=C3C=CC(C#Cc4ccccc4)=[N+]3[B-](F)(F)n3c(C#Cc4ccccc4)ccc32)cc1
absorption maximum (in C1CCCCC1): 615 nm
absorption maximum (in C1CCOC1): 610 nm
absorption maximum (in C1COCCO1): 612 nm
absorption maximum (in CCOC(C)=O): 607 nm
absorption maximum (in CO): 605 nm
absorption maximum (in Cc1ccccc1): 614 nm
absorption maximum (in ClC(Cl)Cl): 614 nm
absorption maximum (in ClCCl): 614 nm

COc1cc(OC)cc(C2=[O+][B-](F)(F)OC(c3cccs3)=C2)c1
absorption maximum (in ClCCl): 391 nm

CN(C)c1ccc2ccc3oc(=O)c(-c4ccccc4)nc3c2c1
absorption maximum (in c1ccccc1): 474 nm

CN(C)c1ccc2nc(-c3ccccc3)sc2c1
absorption maximum (in C1CCCCC1): 357 nm
absorption maximum (in CC#N): 362 nm
absorption maximum (in CC(C)O): 361 nm
absorption maximum (in CO): 363 nm
absorption maximum (in CS(C)=O): 369 nm
absorption maximum (in ClC(Cl)Cl): 362 nm
absorption maximum (in c1ccccc1): 364 nm

COc1ccc2c(c1)CCc1c(-c3ccccc3)c3n(c1-2)[B-](F)(F)[N+]1=C2C(=C(c4ccccc4)C1=N3)CCc1ccccc12
absorption maximum (in ClC(Cl)Cl): 723 nm

COC1(OC)C2(Cl)c3nc4cc(-c5cccs5)ccc4nc3C1(Cl)C1C[C@H]3[C@@H](CC12)C1(Cl)c2nc4ccc(-c5cccs5)cc4nc2C3(Cl)C1(OC)OC (stereo partly drawn)
absorption maximum (in CC#N): 366 nm
absorption maximum (in CCCCCC): 358 nm
absorption maximum (in CCOC(C)=O): 362 nm
absorption maximum (in CO): 368 nm
absorption maximum (in Cc1ccccc1): 362 nm
absorption maximum (in ClC(Cl)Cl): 366 nm
absorption maximum (in ClCCl): 367 nm

COc1ccccc1C1=[N+]2C(=C(c3ccccc3)c3c4ccccc4c(-c4ccccc4OC)n3[B-]2(F)F)c2ccccc21
absorption maximum (in ClCCl): 617 nm

Cc1cc(C)c(B(c2c(C)cc(C)cc2C)c2cc3cccc4c(B(c5c(C)cc(C)cc5C)c5c(C)cc(C)cc5C)cc5cccc2c5c34)c(C)c1
absorption maximum (in CCCCCC): 392 nm

CC(C)(C)c1ccc2c(c1)[nH]c1c3[nH]c4cc(C(C)(C)C)ccc4c3c3nsnc3c21
absorption maximum (in CN(C)C=O): 412 nm
absorption maximum (in Cc1ccccc1): 406 nm
absorption maximum (in ClCCl): 411 nm

CCCCCCc1ccsc1-c1ccc(-c2sc(C(=O)O)cc2CCCCCC)s1
absorption maximum (in CC(C)=O): 361 nm
absorption maximum (in CCCCCC): 357 nm
absorption maximum (in CCO): 352 nm
absorption maximum (in CO): 352 nm
absorption maximum (in ClCCl): 364 nm
absorption maximum (in O): 365 nm

c1ccc(N(c2ccccc2)c2ccc(-c3nc4c5ccccc5c5ccccc5c4n3-c3ccccc3)cc2)cc1
absorption maximum (in ClCCl): 400 nm

Cc1c(COC(=O)c2ccccc2Br)n2c(OCC(=O)c3ccccc3Br)c(C)c(=O)n2c1=O
absorption maximum (in CCO): 382 nm

CCN(CC)c1ccc(/C=N/C(C#N)=C(C#N)\N=C\c2ccc(N(CC)CC)cc2O)c(O)c1
absorption maximum (in CC#N): 564 nm

CCC1=C(C)C2=C(c3cc(C(=O)Cl)cc(C(=O)Cl)c3)c3c(C)c(CC)c(C)n3[B-](F)(F)[N+]2=C1C
absorption maximum (in C1CCOC1): 528 nm
absorption maximum (in CC#N): 524 nm
absorption maximum (in CN(C)C=O): 529 nm
absorption maximum (in Cc1ccccc1): 531 nm
absorption maximum (in ClC(Cl)Cl): 532 nm

CN1\C(=C/C=C/C=C/C2=C3C=CC(c4ccccc4)=[N+]3[B-](F)(F)n3c2ccc3-c2ccccc2)C(C)(C)c2ccccc21
absorption maximum (in CC#N): 771 nm
